The supplement of paper PMC11451515

System: SEM cells
Test: cell viability relative to DMSO control; higher = less cytotoxic
Conditions: 48 h
How it was run: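 Three leukemia lines were tested: NOMO1 and SEM at 500 cells/well and P12-Ichikawa at 1000 cells/well. Each was adapted for at least four passages in each medium and seeded in 5 μl in 1536-well plates, and library compounds in DMSO were pin-dosed from 47 μM to 0.79 nM in 11 threefold steps. After 48 h at 37°C, CellTiter-Glo One luminescence was read. Viability is a percentage relative to DMSO wells on each plate, with cell-free wells as background.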

[1] = HPLM + 10% dialyzed FBS, 0.000781 µM
[2] = HPLM + 10% dialyzed FBS, 0.00234 µM
[3] = HPLM + 10% dialyzed FBS, 0.00702 µM
[4] = HPLM + 10% dialyzed FBS, 0.0211 µM
[5] = HPLM + 10% dialyzed FBS, 0.0632 µM
[6] = HPLM + 10% dialyzed FBS, 0.19 µM
[7] = HPLM + 10% dialyzed FBS, 0.569 µM
[8] = HPLM + 10% dialyzed FBS, 1.71 µM
[9] = HPLM + 10% dialyzed FBS, 5.12 µM
[10] = HPLM + 10% dialyzed FBS, 15.4 µM
[11] = HPLM + 10% dialyzed FBS, 46.1 µM
[12] = RPMI 5 mM glucose + 10% FBS, 0.000781 µM
[13] = RPMI 5 mM glucose + 10% FBS, 0.00234 µM
[14] = RPMI 5 mM glucose + 10% FBS, 0.00702 µM
[15] = RPMI 5 mM glucose + 10% FBS, 0.0211 µM
[16] = RPMI 5 mM glucose + 10% FBS, 0.0632 µM
[17] = RPMI 5 mM glucose + 10% FBS, 0.19 µM
[18] = RPMI 5 mM glucose + 10% FBS, 0.569 µM
[19] = RPMI 5 mM glucose + 10% FBS, 1.71 µM
[20] = RPMI 5 mM glucose + 10% FBS, 5.12 µM
[21] = RPMI 5 mM glucose + 10% FBS, 15.4 µM
[22] = RPMI 5 mM glucose + 10% FBS, 46.1 µM
[23] = RPMI 5 mM glucose + 10% dialyzed FBS, 0.000781 µM
[24] = RPMI 5 mM glucose + 10% dialyzed FBS, 0.00234 µM
[25] = RPMI 5 mM glucose + 10% dialyzed FBS, 0.00702 µM
[26] = RPMI 5 mM glucose + 10% dialyzed FBS, 0.0211 µM
[27] = RPMI 5 mM glucose + 10% dialyzed FBS, 0.0632 µM
[28] = RPMI 5 mM glucose + 10% dialyzed FBS, 0.19 µM
[29] = RPMI 5 mM glucose + 10% dialyzed FBS, 0.569 µM
[30] = RPMI 5 mM glucose + 10% dialyzed FBS, 1.71 µM
[31] = RPMI 5 mM glucose + 10% dialyzed FBS, 5.12 µM
[32] = RPMI 5 mM glucose + 10% dialyzed FBS, 15.4 µM
[33] = RPMI 5 mM glucose + 10% dialyzed FBS, 46.1 µM

Row | Compound | cell viability [1] | cell viability [2] | cell viability [3] | cell viability [4] | cell viability [5] | cell viability [6] | cell viability [7] | cell viability [8] | cell viability [9] | cell viability [10] | cell viability [11] | cell viability [12] | cell viability [13] | cell viability [14] | cell viability [15] | cell viability [16] | cell viability [17] | cell viability [18] | cell viability [19] | cell viability [20] | cell viability [21] | cell viability [22] | cell viability [23] | cell viability [24] | cell viability [25] | cell viability [26] | cell viability [27] | cell viability [28] | cell viability [29] | cell viability [30] | cell viability [31] | cell viability [32] | cell viability [33]
1 | Cc1ccccc1N1C(=O)c2cc([S+](N)(=O)[O-])c(Cl)cc2NC1C (centres undefined) | 117% | 108% | 105% | 107% | 122% | 117% | 28.7% | 102% | 112% | 107% | 103% | 142% | 120% | 117% | 109% | 118% | 126% | 22.5% | 128% | 119% | 112% | 84.4% | 125% | 103% | 89.6% | 103% | 100% | 97.5% | 26.8% | 126% | 112% | 108% | 97.2%
2 | CCc1cc(Nc2nccc(-c3c(-c4ccc(OC)c(C(=O)Nc5c(F)cccc5F)c4)nc4ccccn34)n2)c(OC)cc1N1CCC(N2CCN([S+](C)(=O)[O-])CC2)CC1 | 88.9% | 84.9% | 102% | 93.2% | 87.7% | 84.8% | 95.3% | 89.1% | 96.2% | 82.6% | 52.4% | 88.4% | 94.6% | 102% | 100% | 107% | 121% | 105% | 91.6% | 91.9% | 66.6% | 23.5% | 83.1% | 78% | 80.7% | 101% | 87.8% | 79.9% | 86% | 80.6% | 89.1% | 65.9% | 38.7%
3 | Oc1ccc2c3c1O[C@H]1c4[nH]c5c(c4C[C@@]4(O)[C@@H](C2)N(CC2CC2)CC[C@]314)C[C@@]1(O)[C@H]2Cc3ccc(O)c4c3[C@@]1(CCN2CC1CC1)[C@H]5O4 | 70.3% | 88.3% | 101% | 92.6% | 108% | 99.4% | 98.4% | 107% | 113% | 113% | 119% | 86.9% | 80.2% | 102% | 85.7% | 123% | 119% | 123% | 128% | 131% | 119% | 123% | 89.5% | 92.6% | 104% | 80.3% | 107% | 106% | 111% | 107% | 98.4% | 99.6% | 113%
4 | Nc1ccccc1NC(=O)c1ccc(CNC(=O)OCc2cccnc2)cc1 | 109% | 120% | 120% | 111% | 118% | 119% | 87.2% | 21.2% | 8.14% | 7.22% | 5.16% | 109% | 117% | 136% | 125% | 132% | 120% | 89.3% | 12.2% | 7.97% | 6.97% | 4.6% | 94.3% | 105% | 99.8% | 114% | 124% | 104% | 76.3% | 13% | 8.44% | 7.8% | 5.76%
5 | COc1cnc(N[S+](=O)([O-])c2ccc(N)cc2)nc1 | 75.9% | 96.2% | 85.7% | 86.1% | 93.2% | 94.6% | 91.9% | 93.1% | 109% | 102% | 103% | 94.9% | 97.4% | 99.7% | 104% | 101% | 107% | 113% | 97.3% | 107% | 102% | 105% | 75.9% | 91.6% | 106% | 104% | 93.7% | 107% | 108% | 115% | 117% | 106% | 118%
6 | CC[C@H](CC[C@@H](C)[C@H]1CC[C@H]2[C@@H]3C\C=C/4C[C@@H](O)CC[C@]4(C)[C@H]3CC[C@]12C)C(C)C | 119% | 130% | 123% | 139% | 129% | 128% | 114% | 116% | 116% | 122% | 95.8% | 117% | 114% | 126% | 119% | 131% | 116% | 124% | 110% | 115% | 114% | 92.3% | 124% | 144% | 122% | 115% | 147% | 126% | 125% | 129% | 138% | 121% | 94.6%
7 | COc1cccc2cc(-c3nc(C4CCC(C(=O)O)CC4)n4ncnc(N)c34)[nH]c12 (centres undefined) | 118% | 132% | 124% | 107% | 107% | 101% | 74.7% | 36.2% | 28.2% | 22.6% | 16.4% |  |  |  |  |  |  |  |  |  |  |  | 111% | 133% | 118% | 114% | 96% | 99.7% | 89.3% | 52.6% | 31.5% | 22.2% | 15.8%
8 | CNC(=O)c1ccc(-c2cnc3ncc(Cc4ccc5ncccc5c4)n3n2)cc1F | 108% | 126% | 122% | 119% | 128% | 117% | 124% | 137% | 120% | 127% | 124% | 110% | 129% | 100% | 127% | 133% | 124% | 126% | 125% | 124% | 133% | 105% | 116% | 121% | 129% | 126% | 129% | 130% | 144% | 146% | 131% | 118% | 132%
9 | OC1=C(O)C2=C(\C=C/C(=O)O2)C=C1 | 82.7% | 94.1% | 90.2% | 101% | 65.4% | 102% | 98.4% | 103% | 99.1% | 93.9% | 9.29% | 91.8% | 106% | 98.1% | 91.6% | 70% | 91.8% | 98.3% | 102% | 102% | 93.5% | 7.55% | 83.2% | 101% | 98.9% | 102% | 78.8% | 101% | 112% | 101% | 90.4% | 90.3% | 9.04%
10 | OC[C@H]1O[C@@H](O[C@@H]2[C@@H](CO)O[C@](O)(CO)[C@H]2O)[C@H](O)[C@@H](O)[C@H]1O | 103% | 96.4% | 105% | 110% | 113% | 100% | 109% | 108% | 105% | 63.5% | 93.7% | 102% | 85% | 108% | 112% | 94.1% | 97.2% | 102% | 96.2% | 93.3% | 68.9% | 95.8% | 95.6% | 82.5% | 102% | 116% | 101% | 105% | 94.6% | 106% | 82.8% | 72.2% | 96.4%
11 | O=NN(CCCl)C(=O)NC1CCCCC1 | 84.7% | 94.3% | 94.3% | 89.2% | 91.5% | 101% | 111% | 90.8% | 89.9% | 89.3% | 86.7% | 114% | 117% | 113% | 103% | 126% | 93.7% | 122% | 121% | 132% | 109% | 101% | 81.3% | 86.1% | 87.5% | 88.3% | 89.3% | 92.2% | 98.9% | 104% | 101% | 100% | 70.8%
12 | COc1ccc(C[C@@H](C)[C@@H](C)Cc2ccc(OC)c(OC)c2)cc1OC | 73.5% | 93.2% | 85.2% | 92.7% | 96% | 94.9% | 91.8% | 83.2% | 19% | 16.3% | 8.54% | 80.6% | 104% | 102% | 111% | 106% | 120% | 93.3% | 82.4% | 18.7% | 16.7% | 4.5% | 76.3% | 97.7% | 88.9% | 91.7% | 88.9% | 83.7% | 81.1% | 74% | 18.3% | 14.9% | 4%
13 | C/C=C(/C)C(=O)O[C@H]1C(C)=C2[C@H]([C@@H]1OC(=O)CCCCCCC)[C@@](C)(OC(C)=O)C[C@H](OC(=O)CCC)[C@@]1(O)[C@H]2OC(=O)[C@@]1(C)O | 95% | 112% | 111% | 101% | 57% | 13.1% | 8.77% | 7.59% | 7.07% | 6.17% | 6.69% | 105% | 112% | 113% | 85.7% | 23.8% | 10.4% | 6.8% | 6.65% | 7.69% | 5.62% | 6.01% | 107% | 138% | 114% | 82.7% | 33.8% | 9.51% | 7.63% | 5.08% | 4.94% | 3.37% | 3.69%
14 | Cc1c(CN2CCN(C(=O)[C@H](C)O)CC2)sc2c(N3CCOCC3)nc(-c3cnc(N)nc3)nc12 | 98% | 63.4% | 78.2% | 79% | 70.5% | 67.7% | 55.4% | 38.5% | 35.8% | 36.1% | 31.3% | 96.8% | 70% | 95.4% | 80.9% | 84.6% | 80.1% | 56.3% | 34.3% | 34.3% | 36.8% | 27.3% | 90.4% | 54.8% | 87.4% | 82.4% | 67% | 78.6% | 48.2% | 41.3% | 36.6% | 34.6% | 30.5%
15 | O=C([O-])C(O)Cc1ccc(O)c(O)c1 (centres undefined) | 93.4% | 111% | 93.6% | 95.6% | 96% | 81.2% | 79.2% | 76.4% | 71.2% | 74.2% | 55% | 102% | 111% | 105% | 96.8% | 107% | 96.3% | 87.3% | 76.2% | 88.5% | 75.7% | 53.4% | 93.7% | 109% | 101% | 96% | 79.8% | 96.3% | 69% | 76.8% | 60.4% | 74.5% | 50.4%
